Experimental data taken from the supplement of paper PMC4858399.

Legend:
Conditions in all cases: exposure time 48 h
[1] = tested on: Caenorhabditis elegans N2; test: AC50 for larval growth inhibition (Hill fit); higher = less potent
Outline: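 Synchronised C. elegans N2 L1 larvae (50 per well, 96-well plates) were grown for 48 h at 20°C in K-medium with killed OP50, 1% DMSO and 0.5–200 µM chemical. The COPAS Biosort measured each worm's size as extinction, which was log-transformed and averaged per well. AC50 came from a constrained Hill fit by weighted genetic-algorithm regression on wells with at least 10 worms. Out-of-range values are censored.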

[2] = tested on: Caenorhabditis elegans N2; test: mean nematode size ln(EXT) after 48 h, plate-adjusted (DMSO control set to 6) (ln(EXT), control-adjusted); higher = larger nematodes / less growth inhibition
Outline: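 Worms were measured individually for extinction on the Biosort after 48 h at 20°C. They began as synchronised C. elegans N2 L1 larvae in K-medium with killed OP50, 1% DMSO and 0.5–200 µM chemical. Once debris had been removed by a growth model, values were natural-logged and averaged per well to give mean size. The plate adjustment subtracted the vehicle control mean and added 6.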

[3] = tested on: Caenorhabditis elegans N2; test: lowest effective concentration for larval growth inhibition (size below effect threshold); higher = less potent
Outline: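 In 96-well plates, 50 C. elegans N2 L1 larvae per well were cultured at 20°C for 48 h in K-medium with killed bacteria and 1% DMSO, plus the chemical at 0.5, 1, 5, 10, 50, 100 or 200 µM. Size was measured as per-worm extinction on a Biosort and log-transformed into well means. Taking the first dose where the plate-adjusted mean size sits under 5.665 and stays there at higher doses gives the lowest effective concentration.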

Structure (SMILES) | AC50 for larval growth inhibition [1] [µM] | mean nematode size ln(EXT) (ln) ([2]; 0.5 µM) | mean nematode size ln(EXT) (ln) ([2]; 1 µM) | mean nematode size ln(EXT) (ln) ([2]; 5 µM) | mean nematode size ln(EXT) (ln) ([2]; 10 µM) | mean nematode size ln(EXT) (ln) ([2]; 50 µM) | mean nematode size ln(EXT) (ln) ([2]; 100 µM) | mean nematode size ln(EXT) (ln) ([2]; 200 µM) | lowest effective concentration [3] [µM]
O=C(O)Cn1c(=O)n(Cc2ccc(Br)cc2F)c(=O)c2ccc(Cl)cc21 [Zenarestat] | > 200 | 5.91 | 5.87 | 5.84 | 6.11 | 5.77 | 5.77 | 5.4 | 200
C[C@]12CC[C@@H]3c4ccc(O)cc4CC[C@H]3[C@@H]1CC[C@@H]2O [beta-Estradiol] | 188 | 5.85 | 5.81 | 5.8 | 5.84 | 5.75 | 5.94 | 5.2 | 200
CC(C)=CCC/C(C)=C\CO [cis-3,7-Dimethyl-2,6-octadien-1-ol] | > 200 | 5.8 | 5.76 | 5.79 | 5.75 | 5.78 | 5.69 | 5.63 | 200
COC(=O)Nc1nc2ccccc2[nH]1 [methyl 1H-benzimidazol-2-ylcarbamate] | 6.43 | 5.81 | 5.7 | 5.32 | 5.32 | 5.06 | 4.58 | 4.89 | 5
Clc1ccc(C(c2ccccc2Cl)C(Cl)(Cl)Cl)cc1 (centres undefined) [o,p'-DDT] | 24.1 | 5.7 | 5.89 | 5.78 | 5.19 | 4.4 | 4.09 | 3.85 | 10
Clc1ccc(C(c2ccc(Cl)cc2)C(Cl)Cl)cc1 [p,p'-DDD] | 1.88 | 5.59 | 5.57 | 3.62 | 3.7 | 3.68 | 3.57 | 3.14 | ≤ 0.5
ClC(Cl)=C(c1ccc(Cl)cc1)c1ccc(Cl)cc1 [p,p'-DDE] | 2.64 | 5.79 | 5.71 | 4.36 | 4.21 | 3.94 | 3.93 | 3.67 | 5
Clc1ccc(C(c2ccc(Cl)cc2)C(Cl)(Cl)Cl)cc1 [p,p'-DDT] | 3.83 | 6 | 5.91 | 4.31 | 3.75 | 3.44 | 3.36 | 3.29 | 5
Brc1ccc(Oc2ccccc2)cc1 [p-Bromodiphenyl-ether] | 52.5 | 5.7 | 5.75 | 5.55 | 5.54 | 4.74 | 4.03 | 3.65 | 5
Nc1ccc(Cl)cc1 [p-Chloroaniline] | 58.2 | 5.79 | 5.76 | 5.74 | 5.76 | 5.28 | 4.43 | 4.21 | 50
CC(C)(C)c1cc(O)ccc1O [tert-Butylhydroquinone] | > 200 | 5.85 | 5.85 | 5.96 | 5.81 | 5.62 | 5.41 | 5.03 | 50
